According to patent publication US8435960B2, “Devices for improved wound management” (Lakewood-Amedex, Inc., priority 1998, dated 2013):
Strand notation (5' to 3'): a small letter for the sugar, then the base; units joined by * are phosphorothioate-linked, units joined directly phosphodiester-linked; [ ] holds rarer units or linkages, { } end groups; capitals alone tell only the bases. [invdT] = inverted (3'-3') thymidine; {BuOH} = butanol end-blocking group; m = 2'-O-methyl

Assays:
[1] = test system: P. aeruginosa ACC # 10145; experiment: Limited nutrient growth study, P. aeruginosa; format: cell-based; conditions: approx. 24 hours; for Inhibition (%): oligonucleotide pH 1.5, 32 A260 units
[2] = test system: S. aureus ACC # 13301; experiment: Limited nutrient growth study, S. aureus; format: cell-based; conditions: approx. 24 hours; for Inhibition (%): oligonucleotide pH 1.5, 32 A260 units
[3] = test system: Pseudomonas aeruginosa (Strain Utah 4); experiment: Burn wound infection model, topical infection and topical treatment; format: in vivo, BALB/c female mice; conditions: for % Survival / No. Survivors/Total: topical infection, topical treatment
[4] = test system: Pseudomonas aeruginosa (Strain Utah 4); experiment: Burn wound infection model, subcutaneous (systemic) infection; format: in vivo, BALB/c female mice
[5] = test system: Strep. mutans; experiment: Stationary growth assay, Strep. mutans; format: cell-based; conditions: 16 A260 units; for CFU/ml: Strep. mutans 10^7 CFU/ml start; for Inhibition (%): Strep. mutans, approx. 24 hours
[6] = test system: S. aureus; experiment: Stationary growth assay, S. aureus; format: cell-based; conditions: S. aureus 10^7 CFU/ml start, 32 A260 units
[7] = test system: Staphylococcal furuncle; experiment: Treatment of Staphylococcal furuncle in a human subject; format: in vivo
[8] = test system: Pseudomonas aeruginosa; experiment: Systemic Pseudomonas burn model of infection (Example 9); format: in vivo, mice
[9] = test system: Pseudomonas aeruginosa; experiment: Topical treatment of outer ear infections in chinchillas; format: in vivo
[10] = test system: Strep. pyogenes; experiment: Treatment of Strep. pyogenes skin infection on a dog; format: in vivo; conditions: cut on abdomen, Neosporin for 3 days, nucleic acid pH 1.5, two treatments separated by 12 hours
[11] = test system: Pseudomonas aeruginosa; experiment: Topical Pseudomonas burn model of infection in immuno-compromised mice (Example 9); format: in vivo; conditions: topical treatment at 4 hrs. and 8 hrs. post infection, pH 1.5
[12] = topical treatment 1800 A/ml, individual mice # 1-3, NG = no growth
[13] = mice, burn wound infection with 5 LD50 P. aeruginosa, summary of all studies
[14] = pH of nucleic acid 3, 32 A260 units
[15] = pH of nucleic acid 4, 32 A260 units
[16] = pH of nucleic acid 5, 32 A260 units
[17] = pH of nucleic acid 7, 32 A260 units
[18] = after 16 hours from the initial treatment

## Homopolymer, 12 C: CCCCCCCCCCCC, 2′-O-methyl substituted ribonucleotides phosphodiester linked, 3′ and 5′ butanol end-blocking ({BuOH}-mCmCmCmCmCmCmCmCmCmCmCmC-{BuOH})
[1]
  Inhibition (%): 100%
[2]
  Inhibition (%): 100%

## HO—CH2CH2CH2CH2-ACg•CgC•CAU•Ugg-CH2CH2CH2CH2—OH [B2]
[3]; concentration 335 A/ml
  % Survival: 40%
  No. Survivors/Total: 2/5
[3]; concentration 1800 A/ml
  % Survival: 90%
  No. Survivors/Total: 9/10
[3]; [12]
  Microbiological quantitation of tissues, Blood: devoid of any detectable CFUs
  Microbiological quantitation of tissues, Livers: two out of three
  Microbiological quantitation of tissues, Spleens: devoid of any detectable CFUs
[4]; mouse, in vivo
  # Survivors/Total Animals Tested: 28/30
  No. Survivors/Total Animals: 5/5
  survival rate: 100%
[4]; mouse, in vivo, iv
  survival rate (efficacy): 80%
[4]; mouse, in vivo, sc
  survival rate (efficacy): 40%

## 114.21: 2′-O-methyl substituted ribonucleotides phosphodiester linked with 5′ and 3′ inverted T end-blocking, sequence GGAACGCGCCATTGGTATATC (all 2'-O-methyl, all phosphodiester, 5' [invdT], 3' [invdT], T or U not given here)
[5]; pH 3
  CFU/ml: 0 CFU/ml
  Inhibition (%): 100%
[5]; pH 7
  CFU/ml: 10^7 CFU/ml
  Inhibition (%): 0%

## HO—CH2CH2CH2CH2-CgC•CAU—CH2CH2CH2CH2—OH [compound 7]
[4]; mouse, in vivo
  # Survivors/Total Animals Tested: 2/5
  % Survival: 40%

## Homopolymer, 12 G: GGGGGGGGGGGG, 2′-O-methyl substituted ribonucleotides phosphodiester linked, 3′ and 5′ butanol end-blocking ({BuOH}-mGmGmGmGmGmGmGmGmGmGmGmG-{BuOH})
[1]
  Inhibition (%): 100%
[2]
  Inhibition (%): 100%

## HO—CH2CH2CH2CH2—UUU—CH2CH2CH2CH2—OH [compound 4]
[4]; mouse, in vivo
  # Survivors/Total Animals Tested: 2/5
  % Survival: 40%

## HO—CH2CH2CH2CH2-G-CH2CH2CH2CH2—OH [compound 3]
[4]; [13]
  # Survivors/Total Animals Tested: 3/5
  % Survival: 60%

## Homopolymer, 12 A: AAAAAAAAAAAA, 2′-O-methyl substituted ribonucleotides phosphodiester linked, 3′ and 5′ butanol end-blocking ({BuOH}-mAmAmAmAmAmAmAmAmAmAmAmA-{BuOH})
[1]
  Inhibition (%): 100%
[2]
  Inhibition (%): 100%

## dihydroxydibutyldiphophate 2′-O-methyl uridine [BUB]
[4]; mouse, in vivo
  # Survivors/Total Animals Tested: 7/8
  % Survival: 87.5%

## HO—CH2CH2CH2CH2-AUG-CH2CH2CH2CH2—OH [compound 2]
[4]; mouse, in vivo
  # Survivors/Total Animals Tested: 3/5
  % Survival: 60%

## HO—CH2CH2CH2CH2-ACg•CgC•CAU•Ugg-CH2CH2CH2CH2—OH [B7]
[3]; concentration 1800 A/ml
  % Survival: 40%
  No. Survivors/Total: 2/5
[4]; mouse, in vivo
  # Survivors/Total Animals Tested: 2/5
  % Survival: 40%

## SEQ ID NO: 1: 2′-O-methyl ribonucleotides, phosphodiester linkage, 5′ and 3′ inverted T end-blocked, sequence CGCCATTGG (all 2'-O-methyl, all phosphodiester, 5' [invdT], 3' [invdT], T or U not given here)
[1]; pH of nucleic acid 2, 32 A260 units
  Inhibition of Growth (%): 100%
[1]; [14]
  Inhibition of Growth (%): 100%
[1]; [15]
  Inhibition of Growth (%): 100%
[1]; [16]
  Inhibition of Growth (%): 0%
[1]; [17]
  Inhibition of Growth (%): 0%
[6]; pH of nucleic acid 2, approx. 24 hours
  CFU/ml: 0 CFU/ml
[6]; pH of nucleic acid 3
  CFU/ml: 10^3 CFU/ml
[6]; pH of nucleic acid 4
  CFU/ml: 10^6 CFU/ml
[6]; pH of nucleic acid 5
  CFU/ml: 10^7 CFU/ml
[6]; pH of nucleic acid 7
  CFU/ml: 10^7 CFU/ml
[2]; pH of nucleic acid 2, 32 A260 units, A625
  Inhibition of Growth (%): 100%
[2]; [14]
  Inhibition of Growth (%): 100%
[2]; [15]
  Inhibition of Growth (%): 100%
[2]; [16]
  Inhibition of Growth (%): 16%
[2]; [17]
  Inhibition of Growth (%): 0%

## 114.6: 2′-O-methyl substituted ribonucleotides phosphodiester linked with 5′ and 3′ inverted T end-blocking, sequence CGCCAT
[5]; pH 3
  CFU/ml: 0 CFU/ml
  Inhibition (%): 100%
[5]; pH 7
  CFU/ml: 10^7 CFU/ml
  Inhibition (%): 0%

## HO—CH2CH2CH2CH2-GGG-CH2CH2CH2CH2—OH [compound 5]
[4]; mouse, in vivo
  # Survivors/Total Animals Tested: 3/5
  % Survival: 60%

## Homopolymer, 12 U: UUUUUUUUUUUU, 2′-O-methyl substituted ribonucleotides phosphodiester linked, 3′ and 5′ butanol end-blocking (2'-O-methyl; butanol end caps)
[1]
  Inhibition (%): 100%
[2]
  Inhibition (%): 100%

## CO[C@@H]1[C@H](O)[C@@H](COP(=O)(O)O)O[C@H]1n1ccc(=O)[nH]c1=O [compound 6, 2′-O-methyl Uridine monophosphate]
[4]; mouse, in vivo
  # Survivors/Total Animals Tested: 0/5
  % Survival: 0%
  therapeutic activity: did not appear to show any therapeutic activity

## SEQ ID NO: 9: ACGCGCCATTAT, 2′-O-methyl substituted ribonucleotides, phosphodiester linked, end blocked with an inverted T at both the 5′ and 3′ ends (all 2'-O-methyl, all phosphodiester, 5' [invdT], 3' [invdT], T or U not given here)
[7]; 1.5 cm furuncle, after 8 hours of treatment, 100 μl, 18.9 mMolar in water, pH 1.5
  furuncle size: approximately 0.5 cm
[7]; [18]
  size of remaining pinkish area of the furuncle: < 0.5 cm
  swelling, pain, inflammation of furuncle: virtually no swelling, pain, or inflammation
[8]; 10^6 or 10^7 CFU S.C. after burn, treatment I.V. (40% of dose) and S.C., 40 treated mice, pH 1.5
  survival of treated mice: 100%
[8]; treated surviving mice sacrificed and checked for sepsis
  Pseudomonas bacteria in the spleen, liver, or blood: not detected
[9]; otoscopic examination, 2 mMolar in vehicle mixture vs 2.8 mMolar in water
  effectiveness in vehicle mixture (water/ethanol/propylene glycol) compared with water: slightly more effective
[9]; two daily topical applications, pH 1.5, by day 7 post infection (4 days after treatment began)
  outcome of ear infections by otoscopic examination: completely cured
[10]
  outcome of Strep. pyogenes skin infection: completely cleared up the infection, swelling, inflammation, and sensitivity to touch
[11]; cyclophosphamide-treated mice, 10^9 CFU topically on burn
  survival of treated animals: 100%
[11]
  systemic Pseudomonas infection in treated animals: free of systemic Pseudomonas infections
